Patent publication US20180170941A1 (priority 2016, published 2018)

What follows are compounds tested against T1, α5β3γ2 GABAA receptors (Ltk cell membranes) (Homo sapiens, UniProt P18507+P31644) (assay: Binding activity of test compounds on GABAAR: inhibition of [3H]Ro15-1788 binding). Details: GABA α5 Binding Ki Values, inhibition of [3H]Ro15-1788 binding; reported as ranges.
T1 construct: membranes
Summary of the method: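 Membranes from dexamethasone-induced Ltk cells (α5 line: 0.5 μM, 1 day); binding with [3H]Ro15-1788 for 1 h at 4 °C in 50 mM KH2PO4, 1 mM EDTA, 0.2 M KCl, pH 7.4, 0.2 mg/ml α5 protein. Nonspecific binding defined by 10 μM diazepam; filtration, scintillation counting, triplicates.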

T1 sequence (P31644 32-462): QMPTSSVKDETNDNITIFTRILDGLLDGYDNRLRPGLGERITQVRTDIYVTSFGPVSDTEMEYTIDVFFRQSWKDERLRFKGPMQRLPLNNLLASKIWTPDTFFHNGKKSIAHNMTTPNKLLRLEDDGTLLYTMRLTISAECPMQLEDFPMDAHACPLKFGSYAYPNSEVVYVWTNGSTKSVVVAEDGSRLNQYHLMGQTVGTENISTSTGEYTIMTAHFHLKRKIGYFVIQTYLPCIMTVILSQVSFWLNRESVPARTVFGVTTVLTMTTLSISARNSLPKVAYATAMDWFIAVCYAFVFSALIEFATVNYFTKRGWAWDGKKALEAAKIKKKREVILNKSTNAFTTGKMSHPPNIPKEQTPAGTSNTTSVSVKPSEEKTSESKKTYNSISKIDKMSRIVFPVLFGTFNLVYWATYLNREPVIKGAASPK
T1 sequence (P28472 26-473 partner): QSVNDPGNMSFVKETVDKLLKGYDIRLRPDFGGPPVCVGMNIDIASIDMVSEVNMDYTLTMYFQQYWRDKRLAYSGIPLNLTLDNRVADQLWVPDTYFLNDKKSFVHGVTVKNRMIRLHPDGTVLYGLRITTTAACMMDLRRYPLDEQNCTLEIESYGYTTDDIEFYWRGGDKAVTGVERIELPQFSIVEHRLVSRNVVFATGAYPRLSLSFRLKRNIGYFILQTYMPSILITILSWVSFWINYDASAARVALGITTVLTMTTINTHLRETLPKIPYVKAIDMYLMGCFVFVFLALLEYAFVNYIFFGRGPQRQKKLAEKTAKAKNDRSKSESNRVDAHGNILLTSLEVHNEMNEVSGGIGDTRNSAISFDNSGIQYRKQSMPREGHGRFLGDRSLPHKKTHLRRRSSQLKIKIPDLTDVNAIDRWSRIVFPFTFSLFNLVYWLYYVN
T1 sequence (P18507 40-475): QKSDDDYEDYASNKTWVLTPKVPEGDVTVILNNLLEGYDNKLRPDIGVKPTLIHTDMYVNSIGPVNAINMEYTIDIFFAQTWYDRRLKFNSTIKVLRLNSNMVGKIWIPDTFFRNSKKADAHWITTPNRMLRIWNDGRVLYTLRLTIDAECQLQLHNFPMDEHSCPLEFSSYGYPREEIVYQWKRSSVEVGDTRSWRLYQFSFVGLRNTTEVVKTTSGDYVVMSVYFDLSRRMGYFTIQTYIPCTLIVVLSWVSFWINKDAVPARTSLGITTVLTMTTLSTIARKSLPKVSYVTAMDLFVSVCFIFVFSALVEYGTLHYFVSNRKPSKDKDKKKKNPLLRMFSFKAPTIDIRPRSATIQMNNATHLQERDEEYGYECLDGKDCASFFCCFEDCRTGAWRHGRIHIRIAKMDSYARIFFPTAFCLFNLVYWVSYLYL

Row | Structure (SMILES) | Ki [nM]
1 | COCc1nnc2n1Cc1c(C3=N[C@@H](c4ccccc4)CO3)ncn1-c1ccc(OC)cc1-2 [Compound 343] | < 100
2 | COc1ccc2c(c1)-n1nncc1Cc1c(-c3ncco3)ncn1-2 [Compound 344] | < 100
3 | CCC#Cc1ncn2c1Cn1c(COC)nnc1-c1cc(Cl)ccc1-2 [Compound 345] | < 100
4 | COCc1nnc2n1Cc1c(C#CCc3ccccc3)ncn1-c1ccc(Cl)cc1-2 [Compound 346] | < 100
5 | COc1ccc2c(c1)-n1nnc(C)c1Cc1c(-c3ncco3)ncn1-2 [Compound 347] | 100 to 1000
6 | COCc1nnc2n1Cc1c(-c3nc4ccccc4o3)ncn1-c1ccc(Cl)cc1-2 [Compound 348] | 100 to 1000
7 | Clc1ccc2c(c1)-c1nnc(COc3ccccc3)n1Cc1c(-c3ncco3)ncn1-2 [Compound 349] | < 100
8 | Clc1ccc2c(c1)-c1nnc(COCc3ccccc3)n1Cc1c(-c3ncco3)ncn1-2 [Compound 350] | < 100
9 | C#Cc1ncn2c1Cn1c(COCc3ccccc3)nnc1-c1cc(Cl)ccc1-2 [Compound 351] | < 100
10 | CC#Cc1ncn2c1Cn1c(COCc3ccccc3)nnc1-c1cc(Cl)ccc1-2 [Compound 352] | 100 to 1000
11 | CC(C)[C@H]1COC(c2ncn3c2Cc2cnnn2-c2cc(Cl)ccc2-3)=N1 [Compound 363] | 100 to 1000
12 | CC1(C)COC(c2ncn3c2Cc2cnnn2-c2cc(Cl)ccc2-3)=N1 [Compound 364] | < 100
13 | COc1ccc2c(c1)-n1nncc1Cc1c(C3=N[C@@H](c4ccccc4F)CO3)ncn1-2 [Compound 366] | < 100
14 | COc1ccc2c(c1)-n1nncc1Cc1c(C3=N[C@@H](c4ccc(Cl)cc4)CO3)ncn1-2 [Compound 368] | < 100
15 | COc1ccc2c(c1)-n1nncc1Cc1c(C3=N[C@@H](c4cc(F)ccc4F)CO3)ncn1-2 [Compound 369] | < 100
16 | COc1ccc2c(c1)-n1nncc1Cc1c(C3=N[C@@H](c4cccc5ccccc45)CO3)ncn1-2 [Compound 370] | 100 to 1000
17 | COc1ccc2c(c1)-n1nncc1Cc1c(C3=N[C@@H](c4cccc(C(F)(F)F)c4)CO3)ncn1-2 [Compound 371] | 100 to 1000
18 | COc1ccc2c(c1)-n1nncc1Cc1c(C3=N[C@@H](c4ccc(C(F)(F)F)cc4)CO3)ncn1-2 [Compound 372] | < 100
19 | COc1ccc2c(c1)-n1nncc1Cc1c(C3=N[C@@H](c4ccccc4C)CO3)ncn1-2 [Compound 373] | < 100
20 | COc1ccc2c(c1)-n1nncc1Cc1c(C3=N[C@@H](c4ccc(Cl)cc4Cl)CO3)ncn1-2 [Compound 374] | 100 to 1000

Row | Structure (SMILES) | Ki [nM]
21 | COc1ccc2c(c1)-n1nncc1Cc1c(C3=N[C@@H](c4ccc(F)c(C(F)(F)F)c4)CO3)ncn1-2 [Compound 375] | < 100
22 | Cc1nnn2c1Cc1c(C3=N[C@@H](c4ccccc4)CO3)ncn1-c1ccc(Cl)cc1-2 [Compound 376] | 100 to 1000
23 | Cc1nnn2c1Cc1c(C3=N[C@H](c4ccccc4)CO3)ncn1-c1ccc(Cl)cc1-2 [Compound 377] | < 100
24 | Cc1nnn2c1Cc1c(C3=N[C@@H](c4ccccc4F)CO3)ncn1-c1ccc(Cl)cc1-2 [Compound 378] | 100 to 1000
25 | Cc1nnn2c1Cc1c(C3=N[C@@H](c4ccc(F)cc4)CO3)ncn1-c1ccc(Cl)cc1-2 [Compound 379] | 100 to 1000
26 | COc1ccc2c(c1)-n1nncc1Cc1c(C3=N[C@@H](C(C)C)CO3)ncn1-2 [Compound 382] | 100 to 1000
27 | COc1ccc2c(c1)-n1nncc1Cc1c(C3=NCCO3)ncn1-2 [Compound 383] | < 100
28 | C#Cc1ccc2c(c1)-c1nnc(COC)n1Cc1c(C3=N[C@@H](C(C)C)CO3)ncn1-2 [Compound 384] | 100 to 1000
29 | Clc1ccc2c(c1)-n1nncc1Cc1c(-c3nc(-c4ccccc4)co3)ncn1-2 [Compound 385] | < 100
30 | FC(F)(F)c1ccc(-c2coc(-c3ncn4c3Cc3cnnn3-c3cc(Cl)ccc3-4)n2)cc1 [Compound 386] | > 1000
31 | CC(C)c1coc(-c2ncn3c2Cc2cnnn2-c2cc(Cl)ccc2-3)n1 [Compound 387] | < 100
32 | COc1ccc2c(c1)-n1nncc1Cc1c(-c3nc(-c4ccccc4)co3)ncn1-2 [Compound 388] | < 100
33 | COc1ccc2c(c1)-n1nncc1Cc1c(-c3nc(-c4cccc(C(F)(F)F)c4)co3)ncn1-2 [Compound 389] | > 1000
34 | COc1ccc2c(c1)-n1nncc1Cc1c(-c3nc(-c4ccc(C(F)(F)F)cc4)co3)ncn1-2 [Compound 390] | > 1000
35 | COc1ccc2c(c1)-n1nncc1Cc1c(-c3nc(-c4ccc(F)c(C(F)(F)F)c4)co3)ncn1-2 [Compound 392] | 100 to 1000
36 | Clc1ccc2c(c1)-n1nncc1Cc1c(-c3ncco3)ncn1-2 [Compound 393] | < 100
37 | COc1ccc2c(c1)-n1nncc1Cc1c(-c3nc(C(C)C)co3)ncn1-2 [Compound 394] | < 100
38 | Clc1ccc2c(c1)-n1nncc1Cc1c(C#Cc3ccccc3)ncn1-2 [Compound 395] | < 100
39 | Cc1ccccc1C#Cc1ncn2c1Cc1cnnn1-c1cc(Cl)ccc1-2 [Compound 396] | < 100
40 | COc1ccc(C#Cc2ncn3c2Cc2cnnn2-c2cc(Cl)ccc2-3)cc1 [Compound 397] | < 100

Row | Structure (SMILES) | Ki [nM]
41 | FC(F)(F)CC#Cc1ncn2c1Cc1cnnn1-c1cc(Cl)ccc1-2 [Compound 398] | < 100
42 | Fc1ccccc1C#Cc1ncn2c1Cc1cnnn1-c1cc(Cl)ccc1-2 [Compound 399] | < 100
43 | Clc1ccc2c(c1)-n1nncc1Cc1c(C#Cc3ccccn3)ncn1-2 [Compound 401] | < 100
44 | Clc1ccc2c(c1)-n1nncc1Cc1c(C#Cc3cccnc3)ncn1-2 [Compound 402] | < 100
45 | C#Cc1ncn2c1Cc1cnnn1-c1cc(OC)ccc1-2 [Compound 403] | < 100
46 | COc1ccc2c(c1)-n1nncc1Cc1c(C#Cc3ccccc3)ncn1-2 [Compound 404] | < 100
47 | COc1ccc2c(c1)-n1nncc1Cc1c(C#Cc3ccccc3C)ncn1-2 [Compound 405] | < 100
48 | COc1ccc2c(c1)-n1nncc1Cc1c(C#Cc3ccc(C(F)(F)F)cc3)ncn1-2 [Compound 406] | < 100
49 | COc1ccc2c(c1)-n1nncc1Cc1c(C#Cc3cccnc3)ncn1-2 [Compound 407] | < 100
50 | COc1ccc2c(c1)-n1nncc1Cc1c(C#Cc3ccccn3)ncn1-2 [Compound 408] | < 100
51 | COc1cccc(C#Cc2ncn3c2Cc2cnnn2-c2cc(OC)ccc2-3)c1 [Compound 409] | < 100
52 | CC#Cc1ncn2c1Cc1cnnn1-c1cc(OC)ccc1-2 [Compound 410] | < 100
53 | COc1ccc2c(c1)-n1nncc1Cc1c(C#Cc3ccccc3F)ncn1-2 [Compound 411] | < 100
54 | COc1ccc2c(c1)-n1nncc1Cc1c(C#Cc3ccc(OC(F)(F)F)cc3)ncn1-2 [Compound 412] | < 100
55 | COc1ccc2c(c1)-n1nncc1Cc1c(C#CCc3ccccc3)ncn1-2 [Compound 413] | < 100
56 | COc1ccc(C#Cc2ncn3c2Cc2cnnn2-c2cc(OC)ccc2-3)cc1 [Compound 414] | < 100
57 | CC(C)C#Cc1ncn2c1Cc1cnnn1-c1cc(Cl)ccc1-2 [Compound 415] | < 100
58 | CC#Cc1ncn2c1Cc1cnnn1-c1cc(Cl)ccc1-2 [Compound 416] | < 100
59 | COc1ccc2c(c1)-n1nncc1Cc1c(C#CCc3cccc(Cl)c3)ncn1-2 [Compound 417] | < 100
60 | COc1ccc2c(c1)-n1nncc1Cc1c(C#CCc3cccc(OC(F)(F)F)c3)ncn1-2 [Compound 418] | < 100
